Assay results published in publication PMC10799292, “The Role of β-Defensin 1 Against Porphyromonas gingivalis Lipopolysaccharide-Mediated Inflammation in the THP-1 Cell Line” (Cureus, 2023).
No end group written: not given here.

Tested on: THP-1 cells
Assay: Apoptosis by flow cytometry (Annexin V & Dead Cell)
Assay type: cell-based, human
Conditions: β-defensin 1 22.62 ng/mL 24 h after Pg-LPS 1 µg/mL; untreated control 87.25%
Method: Untreated control and Pg-LPS treated wells were also maintained. To the tubes, 100 μL of the Muse™ Annexin V & Dead Cell Reagents were added separately. The tubes were completely mixed by pipetting up and down or spinning at a medium speed for three to five seconds, followed by 20 minutes of incubation in the dark at room temperature. The cells were examined with a Flow Cytometer, gated against untreated control cells, and evaluated for apoptosis with the Muse FCS 3.0 software.
The Muse Annexin V & Dead Cell Kit is a method to analyze cells in various stages of apoptosis, where fluorescently labeled Annexin V binds to phosphatidylserine (PS), which translocates to the outer surface of the cell membrane upon the onset of apoptosis. 7-AAD is excluded from live and healthy cells and permeates late-stage apoptotic and dead cells. […] The result is depicted in Figure 9.

Substance: β-defensin 1: β-Defensin 1 peptide was purchased from ThermoFisher Scientific, USA; cationic antimicrobial peptide (DHYNCVSSGGQCLYSACPIFTKIQGTCYRGKAKCCK; ends and bridges not checked; cysteine pairing not given here; UniProt P60022 33-68, looked up)
- live cells: 77.35%
